Where a name gives a salt, the structure may show the parent alone. Read-outs that look alike come from different tables or passages of the source.
What was measured:
CHO‐hSGLT1/2 cells = experiment: Cytotoxicity assay (ToxiLight, adenylate kinase leakage into CHO‐SGLT1/2 inhibition assay media); parameters: CYTOTOXICITY / CY[…], mean / CYTOTOXICITY (% of vehicle control) Mean / CYTOTOXICITY, mean / CY[…] (% of vehicle control) Mean: dose or concentration left out as unconfirmed; conditions: mean;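 further: bioluminescent read-out of adenylate kinase released from lysed cells into the medium, given relative to DMSO vehicle control defined as 0%, higher meaning more cytolysis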
SGLT1 = target: T1, SGLT1 (Homo sapiens, UniProt P13866); experiment: SGLT1 inhibition assay for validation of screening hits and similar compounds (1‐NBD‐glucose uptake, CHO‐hSGLT1 cells); assay type: cell-based; parameters: activity: dose or concentration left out as unconfirmed; conditions: for remaining activity at 5 µM / remaining activity at 50 µM: 0.5 h, concentration not given, read-out: NORMALIZED SGLT1 ACTIVITY (%); for remaining activity at 5 µM / remaining activity at 50 µM / activity: mean; for activity: compound, normalized 1-NBD-glucose uptake, CHO-hSGLT1 cells
T1 sequence (P13866 1-664): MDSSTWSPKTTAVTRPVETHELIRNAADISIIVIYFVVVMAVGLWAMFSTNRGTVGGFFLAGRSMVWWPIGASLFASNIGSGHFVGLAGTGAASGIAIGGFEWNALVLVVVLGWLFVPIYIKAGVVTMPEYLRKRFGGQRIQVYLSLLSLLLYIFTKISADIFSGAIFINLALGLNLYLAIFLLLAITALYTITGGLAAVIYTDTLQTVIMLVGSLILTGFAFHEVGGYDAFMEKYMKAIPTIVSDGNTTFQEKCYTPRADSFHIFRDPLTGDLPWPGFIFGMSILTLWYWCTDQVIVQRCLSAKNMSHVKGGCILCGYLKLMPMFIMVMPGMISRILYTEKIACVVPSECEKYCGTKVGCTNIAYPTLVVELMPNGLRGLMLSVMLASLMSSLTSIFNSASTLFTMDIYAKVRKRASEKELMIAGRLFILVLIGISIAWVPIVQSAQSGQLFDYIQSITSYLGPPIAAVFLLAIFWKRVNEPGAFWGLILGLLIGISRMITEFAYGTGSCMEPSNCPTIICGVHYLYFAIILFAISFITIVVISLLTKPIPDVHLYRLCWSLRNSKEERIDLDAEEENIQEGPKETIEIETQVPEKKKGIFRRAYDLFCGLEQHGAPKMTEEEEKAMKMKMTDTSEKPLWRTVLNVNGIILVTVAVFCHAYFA

hSGLT2 = target: T2, hSGLT2 (Homo sapiens, UniProt P31639); experiment: SGLT2 inhibition assay for validation of screening hits and similar compounds (1‐NBD‐glucose uptake, CHO‐hSGLT2 cells); assay type: cell-based; parameters: activity: dose or concentration left out as unconfirmed; conditions: for remaining activity at 5 µM / remaining activity at 50 µM: 0.5 h, concentration not given, read-out: NORMALIZED SGLT2 ACTIVITY (%); for remaining activity at 5 µM / remaining activity at 50 µM / activity: mean; for activity: compound, normalized 1-NBD-glucose uptake, CHO-hSGLT2 cells
T2 sequence (P31639 1-672): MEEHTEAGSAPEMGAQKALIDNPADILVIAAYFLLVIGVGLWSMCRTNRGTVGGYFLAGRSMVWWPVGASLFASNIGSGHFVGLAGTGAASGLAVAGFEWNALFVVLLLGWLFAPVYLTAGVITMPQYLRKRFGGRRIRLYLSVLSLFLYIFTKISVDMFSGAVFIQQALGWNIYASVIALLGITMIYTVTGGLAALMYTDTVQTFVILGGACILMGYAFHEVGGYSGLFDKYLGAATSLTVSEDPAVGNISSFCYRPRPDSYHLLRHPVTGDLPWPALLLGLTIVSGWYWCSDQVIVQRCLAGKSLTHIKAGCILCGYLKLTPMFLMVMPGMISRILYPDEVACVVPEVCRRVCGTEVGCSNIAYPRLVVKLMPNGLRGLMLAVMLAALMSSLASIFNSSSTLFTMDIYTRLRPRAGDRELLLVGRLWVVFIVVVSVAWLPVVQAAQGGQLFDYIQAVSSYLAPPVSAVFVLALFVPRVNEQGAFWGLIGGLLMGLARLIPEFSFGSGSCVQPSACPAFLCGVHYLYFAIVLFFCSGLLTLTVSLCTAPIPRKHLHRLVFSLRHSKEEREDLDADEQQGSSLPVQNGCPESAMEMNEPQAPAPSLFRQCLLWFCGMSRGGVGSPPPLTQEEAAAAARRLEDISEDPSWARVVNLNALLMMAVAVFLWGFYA

transporters = test system: transporters; parameters: method as in earlier work; conditions: known transporter targets, per category of inhibited transporters, cited from earlier work
[1] = ratio of normalized SGLT2 to SGLT1 activity at 5 uM

| SMILES | CYTOTOXICITY (CHO‐hSGLT1/2 cells) | remaining activity at 5 µM (SGLT1) [%] | remaining activity at 50 µM (SGLT1) [%] | remaining activity at 5 µM (hSGLT2) [%] | remaining activity at 50 µM (hSGLT2) [%] | CYTOTOXICITY (% of vehicle control) Mean (CHO‐hSGLT1/2 cells) | activity (SGLT1) [%] | other results |
| --- | --- | --- | --- | --- | --- | --- | --- | --- |
| C[C@@H]1O[C@@H](O[C@H]2[C@H](O[C@H]3CC[C@]4(C)[C@H]5CC=C6[C@@H]7CC(C)(C)CC[C@]7(C(=O)O)CC[C@@]6(CO)[C@]5(C)CC[C@H]4C3(C)C)OC[C@H](O[C@@H]3O[C@H](CO)[C@@H](O)[C@H](O)[C@H]3O)[C@@H]2O)[C@H](O)[C@H](O)[C@H]1O [Raddeanoside 20] | -24 | 103 | 99 | 116 | 116 | – | – | – |
| CCCCN1CCCCC1C(=O)Nc1c(C)cccc1C (stereo not drawn) [Bupivacaine HCl monohydrate] | – | 68 | 36 | 72 | 50 | – | – | CY[…] 50 mM (CHO‐hSGLT1/2 cells; at 50 mM (so in the source)): -2.27 |
| C/C=C(\C)C(=O)O[C@H]1[C@@H](OC(C)=O)c2c(ccc3ccc(=O)oc23)OC1(C)C [(+)-Praeruptorin A] | – | – | – | – | – | -5.48 % of vehicle control | 94 | activity (hSGLT2): 95%; SGLT2/SGLT1 ACTIVITY RATIO 5 uM Mean (hSGLT2; [1]): 1.0 |
| Oc1cc(O)cc(/C=C/c2ccc(O)c(O)c2)c1 [Piceatannol] | -87 | 107 | 101 | 101 | 105 | – | – | – |
| Clc1ccc(C(OCCN2CCCCC2)c2ccccc2)cc1 (stereo not drawn) [Cloperastine HCl] | – | – | – | – | – | -5 % of vehicle control | 61 | activity (hSGLT2): 65%; SGLT2/SGLT1 ACTIVITY RATIO 5 uM Mean (hSGLT2; [1]): 1.1 |
| C=C(C)C(CC=C(C)C)Cc1c(O)cc2c(c1O)C(=O)CC(c1ccc(O)cc1O)O2 (stereo not drawn) [Kushenol F] | – | – | – | – | – | 15 % of vehicle control | 109 | SGLT2/SGLT1 ACTIVITY RATIO 5 uM Mean (hSGLT2): 1.1; SGLT2/SGLT1 ACTIVITY RATIO 50 mM Mean (hSGLT2): 1.1 |
| COc1ccc(CCN(C)CCCC(C#N)(c2ccc(OC)c(OC)c2)C(C)C)cc1OC (stereo not drawn) [verapamil] | – | – | – | – | – | – | – | INHIBITED TRANSPORTERS (transporters; sodium (co-)transporters): SLC6A4, SLC22A1, SLC22A4, SLC22A5 |
| CC(CN(C)C)CN1c2ccccc2CCc2ccccc21 (stereo not drawn) [trimipramine, reference compound] | – | – | – | – | – | – | – | SGLT1/2 inhibition stated in words (SGLT1; SGLT1 and/or SGLT2, discussion statements): novel SGLT1/2 inhibitors; inhibition at 50 µM (SGLT1; mean inhibition with 50 μmol/L inhibitor, read-out: SGLT1 inhibition): 43%; INHIBITED TRANSPORTERS (transporters): SLC6A2, SLC6A3, SLC6A4 |
| CC=C(C)C(=O)O[C@H]1c2c(ccc3ccc(=O)oc23)OC(C)(C)[C@H]1OC(=O)C(C)=CC [Praeruptorin B - INDOFINE] | – | – | – | – | – | -15 % of vehicle control | 91 | activity (hSGLT2): 92%; SGLT2/SGLT1 ACTIVITY RATIO 5 uM Mean (hSGLT2; [1]): 1.0 |
| COc1cc(/C=C/c2cc(O)cc(O)c2)c2c(c1)O[C@H](c1ccc(OC)c(O)c1)[C@H]2c1cc(O)cc(O)c1 [Shegansu B] | -25 | 100 | 100 | 101 | 103 | – | – | – |
| COC(=O)[C@@]1(C)CC[C@]2(C(=O)O[C@@H]3O[C@H](CO)[C@@H](O)[C@H](O)[C@H]3O)CC[C@]3(C)C(=CC[C@@H]4[C@@]5(C)C[C@H](O)[C@H](O[C@@H]6OC[C@@H](O[C@@H]7O[C@H](CO)[C@@H](O)[C@H](O)[C@H]7O)[C@H](O)[C@H]6O)[C@@](C)(CO)[C@@H]5CC[C@]43C)[C@@H]2C1 [Esculentoside H] | -13 | 104 | 102 | 120 | 112 | – | – | – |
